# Source: PubChem BioAssay (NCI)
#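 48-hour exposure; five concentrations; linearly interpolated endpoints. The concentration for 50% growth inhibition is given as GI50. TGI is the concentration that stops growth completely.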
# Tests used:
# Assay in all cases: DTP human tumour cell line panel, 48 h
# [1] = system: CAKI-1 renal
# [2] = system: ACHN renal
# [3] = system: OVCAR-4 ovarian
# [4] = system: SF-268 CNS
# [5] = system: SK-MEL-5 melanoma
# [6] = system: A549 NSCLC
# [7] = system: HS 578T breast
# [8] = system: HOP-92 NSCLC
# [9] = system: IGROV1 ovarian
# [10] = system: U251 CNS
# [11] = system: KM12 colon
# [12] = system: HOP-62 NSCLC
# [13] = system: SF-295 CNS
# [14] = system: MOLT-4 leukemia
# [15] = system: SNB-75 CNS
# [16] = system: NCI-H522 lung
# [17] = system: MDA-MB-435
# [18] = system: LOX IMVI melanoma
# [19] = system: SK-MEL-28 melanoma
# [20] = system: UACC-62 melanoma
# [21] = system: DU-145 prostate
# [22] = system: UACC-257 melanoma
# [23] = system: MDA-MB-231 breast
# [24] = system: OVCAR-3 ovarian
# [25] = system: A498 renal
# [26] = system: UO-31 renal
# [27] = system: BT-549 breast
# [28] = system: PC-3 prostate
# [29] = system: HT29 colon
# [30] = system: NCI-H460 lung
# [31] = system: MCF7 breast
# [32] = system: MALME-3M melanoma
# [33] = system: T-47D breast
# [34] = system: SN12C renal
# [35] = system: SF-539 CNS
# [36] = system: HCT-116 colon
# [37] = system: OVCAR-5 ovarian
# [38] = system: NCI-H23 lung
# [39] = system: SNB-19 CNS
# [40] = system: TK-10 renal
# [41] = system: SW-620 colon
# [42] = system: RPMI-8226 leukemia
# [43] = system: M14 melanoma
# [44] = system: CCRF-CEM leukemia
# [45] = system: NCI-H226 lung
# [46] = system: OVCAR-8 ovarian
# [47] = system: 786-0 renal
# [48] = system: EKVX NSCLC
# [49] = system: COLO 205 colon
# [50] = system: RXF 393 renal
# [51] = system: HCT-15 colon
# [52] = system: K-562 leukemia
smiles,measurement,setting,value
CCc1nc(-n2c(-c3ccccc3)nc3ccccc3c2=O)nc(N)c1-c1ccc(Cl)cc1,GI50,[1],14.7 µM
same,TGI,[1],41 µM
same,GI50,[2],5.53 µM
same,TGI,[2],> 100 µM
same,GI50,[3],> 100 µM
same,TGI,[3],> 100 µM
same,GI50,[4],73.2 µM
same,TGI,[4],> 100 µM
same,GI50,[5],5.6 µM
same,TGI,[5],33 µM
same,GI50,[6],4.98 µM
same,TGI,[6],> 100 µM
same,GI50,[7],34.8 µM
same,TGI,[7],> 100 µM
same,GI50,[8],13.4 µM
same,TGI,[8],> 100 µM
same,GI50,[9],27.1 µM
same,TGI,[9],> 100 µM
same,GI50,[10],9.19 µM
same,TGI,[10],> 100 µM
same,GI50,[11],26.6 µM
same,TGI,[11],> 100 µM
same,GI50,[12],14.7 µM
same,TGI,[12],> 100 µM
same,GI50,[13],2.26 µM
same,TGI,[13],20.2 µM
same,GI50,[14],6.13 µM
same,TGI,[14],> 100 µM
same,GI50,[15],48.2 µM
same,TGI,[15],> 100 µM
same,GI50,[16],52.2 µM
same,TGI,[16],> 100 µM
same,GI50,[17],3.48 µM
same,TGI,[17],> 100 µM
same,GI50,[18],3.94 µM
same,TGI,[18],> 100 µM
same,GI50,[19],> 100 µM
same,TGI,[19],> 100 µM
same,GI50,[20],6.55 µM
same,TGI,[20],> 100 µM
same,GI50,[21],72.6 µM
same,TGI,[21],> 100 µM
same,GI50,[22],40.3 µM
same,TGI,[22],> 100 µM
same,GI50,[23],> 100 µM
same,TGI,[23],> 100 µM
same,GI50,[24],0.554 µM
same,TGI,[24],30.7 µM
same,GI50,[25],25 µM
same,TGI,[25],92.7 µM
same,GI50,[26],48.6 µM
same,TGI,[26],> 100 µM
same,GI50,[27],90.7 µM
same,TGI,[27],> 100 µM
same,GI50,[28],5.64 µM
same,TGI,[28],90.6 µM
same,GI50,[29],6.62 µM
same,TGI,[29],> 100 µM
same,GI50,[30],8 µM
same,TGI,[30],> 100 µM
same,GI50,[31],80.7 µM
same,TGI,[31],> 100 µM
same,GI50,[32],23.9 µM
same,TGI,[32],> 100 µM
same,GI50,[33],27 µM
same,TGI,[33],81 µM
same,GI50,[34],15.6 µM
same,TGI,[34],> 100 µM
same,GI50,[35],23.7 µM
same,TGI,[35],> 100 µM
same,GI50,[36],3.28 µM
same,TGI,[36],> 100 µM
same,GI50,[37],2.86 µM
same,TGI,[37],> 100 µM
same,GI50,[38],2.9 µM
same,TGI,[38],39.7 µM
same,GI50,[39],6.46 µM
same,TGI,[39],> 100 µM
same,GI50,[40],23.1 µM
same,TGI,[40],> 100 µM
same,GI50,[41],4.64 µM
same,TGI,[41],> 100 µM
same,GI50,[42],50.3 µM
same,TGI,[42],> 100 µM
same,GI50,[43],6.22 µM
same,TGI,[43],> 100 µM
same,GI50,[44],9.94 µM
same,TGI,[44],> 100 µM
same,GI50,[45],69.2 µM
same,TGI,[45],> 100 µM
same,GI50,[46],7.96 µM
same,TGI,[46],> 100 µM
same,GI50,[47],5.64 µM
same,TGI,[47],> 100 µM
same,GI50,[48],> 100 µM
same,TGI,[48],> 100 µM
same,GI50,[49],14.2 µM
same,TGI,[49],> 100 µM
same,GI50,[50],> 100 µM
same,TGI,[50],> 100 µM
same,GI50,[51],6.43 µM
same,TGI,[51],> 100 µM
same,GI50,[52],3.06 µM
same,TGI,[52],> 100 µM
